# Columns and labels:
# Puccinia recondita = Puccinia recondita / wheat plants, spray chamber; format: in vivo; settings: 20 ppm; 1 week old wheat plants cv. Arina, sprayed 2 days before inoculation, assessed 10 days after inoculation
# Method: Fungicidal Activity Against Puccinia recondita/Wheat 1 week old wheat plants cv. Arina were treated with the formulated test compound in a spray chamber. Two days after application wheat plants were inoculated by spraying a spore suspension (1×105 uredospores/ml) on the test plants. After an incubation period of 1 day at […] and 95% r. h. plants were kept for 9 days at […] and 60% r.h. in a greenhouse. The disease incidence was assessed 10 days after inoculation.
# [1] = system: Giberella zeae (Fusarium graminearum); format: in vivo; settings: 200 ppm; wheat spikelets, preventative, assessed 6 dpi; compared to untreated control
# [2] = system: Monographella nivale (Microdochium nivale); experiment: Monographella nivale / wheat pouch test with infected seeds; format: in vivo, M. nivale; settings: 60 ppm; infected wheat seeds cv. Arina in pouch, 4 weeks after sowing; compared to untreated control
# Method: Fungicidal Activity Against Monographella nivale (Microdochium nivale)/Wheat
# Formulated test compound is applied into a pouch which was previously equipped with a filter paper. After the application wheat seeds cv. Arina infected with M. nivale are sown into the upper fault of the filter paper. The pouches are then incubated for 7 days in the dark at 7° C./5° C. (day/night) and 80% r. h. After 1 week light is supplied at the same temperature cycle. Another two weeks later plants were transferred to 17° C./16° C. (day/night) and 80% r. H. The disease incidence is assessed 4 weeks after sowing.
# Phytophthora infestans = format: in vivo; settings: 200 ppm; tomato leaf disks, preventative; compared to untreated control
smiles,measurement,setting,value
"OB1OCc2cc(Cl)c(C=NOCC=C(Cl)Cl)cc21 (single isomer, unassigned) [Compound 50]",disease control (disease incidence),Puccinia recondita,at least 80%
"COC(=O)Cc1ccccc1CON=Cc1cc2c(cc1Cl)COB2O (single isomer, unassigned) [Compound 59]",disease control,[1],at least 80%
"CCOC(=O)CNN=Cc1cc2c(cc1Cl)COB2O (single isomer, unassigned) [Compound 70]",disease control (disease incidence),[2],at least 80%
"CNC(=S)NN=Cc1cc(Cl)cc2c1B(O)OC2 (single isomer, unassigned) [Compound 224]",disease control,Phytophthora infestans,at least 80%
